Patent US11186534B2, “Derivatives of sulindac can protect normal cells against oxidative damage” (University of South Alabama, priority 2017, dated 2021)

Key:
[1] = biological target: T1, ovine COX-1 (Ovis aries, UniProt P05979); test: COX Fluorescent Inhibitor Screening assay, COX-1; assay type: biochemical; conditions: FIG. 4A
T1 construct: purchased Cayman Chemical 700100
T1 sequence (P05979 25-600): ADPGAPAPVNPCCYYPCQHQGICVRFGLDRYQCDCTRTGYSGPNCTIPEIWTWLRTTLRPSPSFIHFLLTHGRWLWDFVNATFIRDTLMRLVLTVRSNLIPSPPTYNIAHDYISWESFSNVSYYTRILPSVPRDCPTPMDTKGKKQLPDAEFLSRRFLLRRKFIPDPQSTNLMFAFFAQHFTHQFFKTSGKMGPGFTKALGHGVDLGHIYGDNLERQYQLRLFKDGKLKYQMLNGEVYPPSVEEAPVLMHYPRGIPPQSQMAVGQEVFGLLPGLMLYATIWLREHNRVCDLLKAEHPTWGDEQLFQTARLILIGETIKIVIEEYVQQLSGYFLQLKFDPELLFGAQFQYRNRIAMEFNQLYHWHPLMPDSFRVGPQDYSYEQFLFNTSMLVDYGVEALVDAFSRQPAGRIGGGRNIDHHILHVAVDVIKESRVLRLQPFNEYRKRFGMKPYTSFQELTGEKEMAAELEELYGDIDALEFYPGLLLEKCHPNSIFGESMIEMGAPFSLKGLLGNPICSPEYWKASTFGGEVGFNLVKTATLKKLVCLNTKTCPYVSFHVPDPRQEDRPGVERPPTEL
Method: Compounds were assayed for cyclooxygenase (COX) inhibition using the COX Fluorescent Inhibitor Screening Kit from Cayman Chemical (Item #: 700100). Briefly, COX enzyme (ovine COX-1 or human recombinant COX-2) diluted in 1× reaction buffer is incubated with the compound or DMSO control for 20 min at 25° C. in a half-area 96-well black microplate. Background wells are also included that contained no enzyme. Added to each well were heme B, to ensure enzyme activity, and 10-acetyl-3,7-dihydroxyphenoxazine (ADHP) assay reagent. After the 20 min incubation, arachidonic acid (AA) substrate was added to all wells. As shown by the schematic diagram below, active COX enzyme converts AA to hydroperoxy endoperoxide (PGG2). Catalyzed by the secondary peroxidase activity of COX, ADHP can react with PGG2 to form a highly fluorescent compound, resorufin. Fluorescence was measured with a […] excitation wavelength and a 585-595 nm emission wavelength. Decreased fluorescence relative to the DMSO control indicates COX inhibition. See, also, Piazza G A, Keeton A B, Tinsley H N, Gary B D, Whitt J D, Mathew B, Thaiparambil J, Coward L, Gorman, G, Li Y, Sani B, Hobrath J V, Maxuitenko Y Y and Reynolds R C. […] Cancer Prevention Research 2009; 2: 572-580.

[2] = tested on: Retinal pigmented epithelium cells (ARPE-19); test: Cell viability assay: protection of RPE cells against oxidative damage from TBHP; assay type: cell-based
Method: Cultured cells and reagents: Retinal pigmented epithelium cells (ARPE-19) were obtained from American Type Culture Collection (ATCC, Manassas, Va.) and cultured at 37° C. in 5% CO2. All chemicals were purchased from Sigma unless specified.
Cell viability assay: Cells were cultured and assayed for cell viability essentially as described previously (14). ARPE-19 cells were plated at 10,000 cells per well in a 96-well plate. The cells were grown for 18-20 hours, the medium discarded in aseptic conditions and replaced with fresh culture medium containing the indicated drug concentration. The plates were incubated for 24 hours at 37° C. in a 5% CO2 incubator in the presence of sulindac or Compound 9. To examine the treatment effects on oxidative damage to RPE cells, cells were washed and incubated in media without serum with various concentrations of tert-butyl hydroperoxide (TBHP) for an additional 24h. The culture medium was then discarded and the cells were thoroughly rinsed in PBS. Cell viability was determined by using the Cell Titer 96 Aqueous One Cell Proliferation Assay (Promega) according to the manufacturer's instructions. The assay utilizes a tetrazolium compound that is converted into a water-soluble formazan by the action of cellular NADH oxidase activity in metabolically active cells. The formazan was quantified by measuring the absorbance at 490 nm using a colorimetric microtiter plate reader (SpectraMax Plus; Molecular Devices).
In the present studies, a series of compounds were identified as having the ability to protect RPE cells against oxidative damage using tert-butyl hydroperoxide (TBHP), an organic peroxide, as an oxidizing agent (10).

[3] = tested on: rat intact hearts (Langendorff model); test: Langendorff model of ischemia/reperfusion injury, infarct size by TTC staining; assay type: in vivo, Sprague Dawley rats; conditions: 45 min ischemia and 2 h reperfusion; 0.7 mg/kg daily for 48 h; FIG. 8
Method: The ex vivo Langendorff procedure is a well-established preparation used to investigate heart physiology, ischemia/reperfusion injury, and other cardiovascular insults (23, 24; also see, e.g., reference 22). Sprague Dawley rats (275-325g) were administered either no drug or Compound 9 daily (at 0.7 mg/kg) for a total of two days (two administrations in total). Forty-eight hours after the start of drug exposure, hearts were removed and exposed to 45 min no flow ischemia and 2 h reperfusion in the Langendorff model (hearts were first equilibrated in KHB buffer for 10 min and then subjected to 45 min ischemia followed by 2 h reperfusion with KHB buffer), in the absence of drug.
In LDH and TTC assays for the Langendorff Preparation, coronary effluent samples (500 μL) from the Langendorff preparation were obtained upon attachment of excised heart, every 15 min before ischemia, immediately after 45 min ischemia, and at 15 min intervals during reperfusion. LDH was measured (using a Cytotox-96 nonradioactive cytotoxicity assay kit (Promega), with the absorbance read at 490 nm). […]
The protective (preconditioning) effect of Compound 9 was evaluated in an art-recognized Langendorff model of ischemia/reperfusion injury. […]

COc1cc2c(cc1OC)/C(=C\c1cc(OC)c(OC)c(OC)c1)C(C)=C2CC(=O)O [Compound 9, (Z)-2-(5,6-dimethoxy-2-methyl-1-(3,4,5-trimethoxybenzylidene)-1H-inden-3-yl)acetic acid]
COX-1 inhibition: fold less potent than sulindac sulfide (SS) [1]: ≥ 20 × | Cyto-protective activity* ([2]; RPE cells, TBHP as oxidizing agent, relative to Sulindac): active | Protective effect on RPE cells in combination with PKG inhibitor Rp-Br-8-PET-cGMPS ([2]; Rp-Br-8-PET-cGMPS 500 μM, 24 h, FIG. 6C): reduces the protection | Lowest concentration found effective in protecting RPE cells ([2]; TBHP, FIG. 3): 10 µM | Protective effect on RPE cells in combination with PKC inhibitor chelerythrine ([2]; chelerythrine 2 μM, 24 h, FIG. 6B): significantly reduces the protective effect | TBHP concentration up to which complete protection of RPE cells was provided ([2]; compound at 25 μM, FIG. 2): ≤ 400 µM | Times more active than sulindac in protecting RPE cells and other cells from oxidative damage ([2]; on a molar basis, stated as 'may be'): at least 10 times | Fold lower effective concentration relative to sulindac (RPE cell protection) ([2]; sulindac 200 μM, Compound 10 at 25 μM, Compound 9 at 10 μM): 20 × | Protective effect on RPE cells in combination with ROS scavenger tiron ([2]; tiron 1 mM, 24 h, FIG. 6A): attenuates the protective effect | Infarction size (percent of heart infarcted, TTC staining) [3]: below 20%
